Columns and labels:
ERCC1 protein = test: Western blot of ERCC1 protein stability; assay type: cell-based; conditions: 50 μM, 24, 48 and 72 hours, compared to cisplatin control treatment
Experimental: In order to study if the compounds' inhibitory activity of ERCC1-XPF incision is due to inhibition of DNA binding ability, we performed EMSAs. One possibility for ERCC1-XPF enzyme inhibition is via inhibition of the ERCC1-XPF binding to DNA. In this assay, we incubated the titrated Hit 1 or 2 respectively with purified ERCC1-XPF on ice and reactions were initiated by the addition of the 5'-[^32P] radiolabeled DNA substrate 37°C. The samples were separated on a 10% native gel and the products were visualized via phosphorimager analysis. […] If these compounds were affecting the protein-protein interaction between ERCC1 and XPF, we would expect to observe loss of protein following treatment similar to what we have observed with ERCC1 and XPF knockdowns.
Supplementary Figure S3: A. Analysis of 16168 and 143099 on XPG incision activity. Compounds were titrated and inhibition of
XPG incision activity was quantified for 16168 (open circles) or 143099 (filled circles). The results are presented as the mean ± SEM of 3
independent experiments. B. Western bots assessing ERCC1 protein stability following cisplatin (IC50 concentration), 143099 (50 μM) and […]

HhaI = test: Secondary screen, fluorescence assay with HhaI endonuclease; assay type: biochemical; conditions: compound titration in the HTS assay

SMILES | effect on ERCC1 protein levels (ERCC1 protein) | effect on HhaI activity (HhaI)
Oc1cc(O)c2c(c1)OC(c1ccc(O)c(O)c1)C(O)C2c1c(O)cc(O)c2c1OC(c1ccc(O)c(O)c1)C(O)C2 (stereo not shown) [NSC143099] | neither Hit 1 nor Hit 2 affects ERCC1 protein levels | no effect on HhaI activity
Cc1ccc(S(=O)(=O)Oc2cc(S(=O)(=O)O)cc3cc(S(=O)(=O)O)cc(N)c23)cc1 [NSC16168] | neither Hit 1 nor Hit 2 affects ERCC1 protein levels | no effect

Reference: publication PMC5342726, “Identification of small molecule inhibitors of ERCC1-XPF that inhibit DNA repair and potentiate cisplatin efficacy in cancer cells” (Oncotarget, 2016)
